Assays:
PSMA = target: T1, PSMA (Homo sapiens, UniProt Q04609); test: Saturation binding assay on PC-3 PIP cells (PSMA affinity, KD)
T1 construct: expressed in transfected cells; host or cells: PC-3 PIP cells (PSMA-positive subline of human PC-3 prostate cancer cells), provided by Prof; Martin Pomper, Johns Hopkins
Method: Determination of the PSMA affinity was performed by saturation binding assays using PC-3 PIP cells and different concentrations of ^nat/44Sc-, ^nat/177Lu-, ^nat/68Ga-PSMA-617, or ^nat/68Ga-PSMA-11, respectively (Additional file 1).
Determination of the KD values was performed by saturation binding assays using PSMA^pos PC-3 PIP cells. After successful radiolabeling of the PSMA ligands, a 2.5-fold molar excess of the corresponding cold metal was added and the reaction mixture was incubated for another 10 min at 95 °C. Quality control was performed again after reaction of the radioligands with the “cold” metal as described in the main manuscript.
The cells were seeded in 48-well-plates (8 x 10^5 cells in 500 uL RPMI medium/well) allowing adhesion and growth overnight at 37 °C and 5% CO2. For the entire experiment, the well-plates were kept on ice. After removal of the supernatant, the cells were washed once with ice-cold PBS pH 7.4 prior to the addition of different concentrations (1 nM-2 µM) of either ^nat/44Sc-, ^nat/177Lu-, ^nat/67/68Ga-PSMA-617 or ^nat/67/68Ga-PSMA-11 in ice-cold RPMI medium without supplements. For the determination of non-specific binding, cell samples were incubated with 2-phosphonomethyl pentanedioic acid (2-PMPA, 200 μM). The well-plates were incubated for 30 min at 4 °C. Then, the supernatants were removed and the cells washed twice with ice-cold PBS followed by addition of NaOH (1 M, 600 µL) to each well. The cell suspensions were transferred to 4 mL tubes for measurement in a γ-counter (Wallac Wizard 1480, Perkin Elmer). The KD values were determined by plotting specific-binding (total binding minus unspecific binding) against the molar concentration of the added radioligands followed by nonlinear regression analysis using GraphPad Prism 7 software.

[1] = n-octanol/PBS distribution coefficient (shake-flask); type: physicochemical; details: n-octanol/PBS pH 7.4, shake-flask
Method: The distribution coefficients (logD values) of the radioligands were determined by a shake-flask method using liquid-liquid extraction followed by phase separation, as previously reported (Additional file 1). In brief, the PSMA ligands were labeled at a specific activity of 5 MBq/nmol. […] The vials were vortexed vigorously for 1 min and then centrifuged for 6 min for phase separation. The concentration of radioactivity in a defined volume of each layer was measured in a γ-counter (Perkin Elmer, Wallac Wizard 1480). The distribution coefficients were expressed as the logarithm of the ratio of counts per minute (cpm) measured in the n-octanol phase to the cpm measure in the PBS phase. The values are reported as the average of at least three independent measurements (± standard deviation, SD), each performed with five replicates. Data were analyzed for significance using a one-way ANOVA test (GraphPad Prism software, version 7). A p value of <0.05 was considered as statistically significant.

[2] = test system: PC-3 PIP/flu tumor-bearing mice; test: PET/CT and SPECT/CT imaging of PC-3 PIP/flu tumor-bearing mice; type: in vivo; details: 2 h after injection
Method: PET/CT scans were performed using a small-animal bench-top PET/CT scanner (G8, Sofie Biosciences, Culver City, California, USA, and Perkin Elmer, Massachusetts, USA) and a small-animal SPECT/CT scanner (NanoSPECT/CT^TM, Mediso Medical Imaging Systems, Budapest, Hungary), respectively (Additional file 1). During the scans, the mice were anesthetized with a mixture of isoflurane and oxygen.
The PET scans were followed by a CT of 1.5 min. The SPECT scan of 45 min duration was performed 2 h after injection of ^177Lu-PSMA-617 (~50 MBq, 1 nmol) followed by a CT of 7.5 min. Reconstruction of the acquired data was performed by using the software of the respective scanner.
All images were prepared using VivoQuant post-processing software (version 2.10, inviCRO Imaging Services and Software, Boston USA). A Gauss post-reconstruction filter (full width at half maximum = 1 mm) was applied to the images, which were presented with the scale adjusted to allow visualization of the most important organs and tissues, usually by cutting 0.5–1% of the lower scale.
PET/CT scans were performed with a small-animal bench-top PET/CT scanner (G8, Sofie Biosciences, Culver City, California, U.S. and Perkin Elmer, Massachusetts, U.S.). The energy window ranged from 150 keV to 650 keV. […]

[3] = test system: PC-3 PIP/flu tumor-bearing mice; test: Biodistribution in PC-3 PIP/flu tumor-bearing mice; details: i.v.; for PC-3 flu Tumor: PSMA^neg xenograft; for PC-3 PIP Tumor: PSMA^pos xenograft
Method: In vivo experiments were approved by the local veterinarian department and conducted in accordance with the Swiss law of animal protection. All mice were obtained from Charles River Laboratories (Sulzfeld, Germany), at the age of 5–6 weeks. Female, athymic nude Balb/c mice were subcutaneously inoculated with PC-3 PIP cells (6 × 10^6 cells in 100 μL Hank’s balanced salt solution (HBSS) with Ca^2+/Mg^2+) on the right shoulder and with PC-3 flu cells (5 × 10^6 cells in 100 μL HBSS with Ca^2+/Mg^2+) on the left shoulder 2 weeks before the performance of the experiments.
Mice were sacrificed at different time points post injection (p.i.) of the radioligands. Selected tissues and organs were collected, weighed and measured using a γ-counter. The results were decay-corrected and listed as a percentage of the injected activity per gram of tissue mass (% IA/g).

T1 sequence (Q04609 whole entry): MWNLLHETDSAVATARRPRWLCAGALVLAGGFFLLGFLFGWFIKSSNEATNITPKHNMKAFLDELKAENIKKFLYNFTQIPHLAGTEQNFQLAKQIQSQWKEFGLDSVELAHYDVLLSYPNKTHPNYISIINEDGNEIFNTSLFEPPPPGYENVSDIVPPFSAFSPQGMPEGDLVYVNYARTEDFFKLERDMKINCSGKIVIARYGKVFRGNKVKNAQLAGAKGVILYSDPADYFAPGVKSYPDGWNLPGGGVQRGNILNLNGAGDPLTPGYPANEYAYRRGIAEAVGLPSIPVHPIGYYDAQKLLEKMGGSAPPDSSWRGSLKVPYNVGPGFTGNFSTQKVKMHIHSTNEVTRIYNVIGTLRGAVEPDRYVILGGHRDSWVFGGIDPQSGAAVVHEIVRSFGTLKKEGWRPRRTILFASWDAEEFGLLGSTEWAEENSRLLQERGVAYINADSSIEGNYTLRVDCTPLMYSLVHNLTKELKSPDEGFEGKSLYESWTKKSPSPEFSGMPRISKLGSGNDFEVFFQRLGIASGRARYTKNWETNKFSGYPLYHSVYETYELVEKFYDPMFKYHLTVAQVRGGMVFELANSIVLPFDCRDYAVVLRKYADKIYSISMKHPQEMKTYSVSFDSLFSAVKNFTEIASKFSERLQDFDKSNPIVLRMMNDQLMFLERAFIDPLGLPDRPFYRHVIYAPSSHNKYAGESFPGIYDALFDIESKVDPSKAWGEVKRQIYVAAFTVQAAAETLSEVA

With `O=C([O-])CN(CCN(CC(=O)[O-])Cc1cc(CCC(=O)NCCCCCC(=O)NCCCC[C@H](NC(=O)N[C@@H](CCC(=O)O)C(=O)O)C(=O)O)ccc1[O-])Cc1cc(CCC(=O)O)ccc1[O-].[68Ga+3]` [^68Ga-PSMA-11] the Kd (PSMA; 30 min at 4 °C, saturation binding) was 87 ± 27 nM, the “Relative PSMA-binding affinity” value (PSMA; inverse molar ratio of average KD values, ^177Lu-PSMA-617 set to 1) was 0.4 and the LogD values [1] was −4.82 ± 0.07. The “accumulation in the kidneys on PET/CT images vs. the other radioligands” value [2] was “significantly higher extent”, the Blood ([3]; 15 min p.i.) was 5.05 ± 0.58 % IA/g and the Bone ([3]; 15 min p.i.) was 1.85 ± 0.20 % IA/g. The Heart ([3]; 15 min p.i.) was 2.45 ± 0.29 % IA/g, the Intestines ([3]; 15 min p.i.) was 1.42 ± 0.07 % IA/g and the Kidneys ([3]; 15 min p.i.) was 74.7 ± 7.02 % IA/g. The Liver ([3]; 15 min p.i.) was 2.00 ± 0.32 % IA/g, the Lung ([3]; 15 min p.i.) was 3.87 ± 0.22 % IA/g and the Muscle ([3]; 15 min p.i.) was 1.21 ± 0.11 % IA/g. It also gave a Salivary glands ([3]; 15 min p.i.) of 2.73 ± 0.27 % IA/g, a Spleen ([3]; 15 min p.i.) of 5.33 ± 1.78 % IA/g and a Stomach ([3]; 15 min p.i.) of 1.42 ± 0.15 % IA/g. The “PC-3 flu Tumor” value ([3]; 15 min p.i.) was 2.19 ± 0.05 % IA/g, the “PC-3 PIP Tumor” value ([3]; 15 min p.i.) was 31.5 ± 13.0 % IA/g and the Blood ([3]; 30 min p.i.) was 2.55 ± 0.72 % IA/g. It also gave a Bone ([3]; 30 min p.i.) of 0.81 ± 0.14 % IA/g, a Heart ([3]; 30 min p.i.) of 1.31 ± 0.19 % IA/g and an Intestines ([3]; 30 min p.i.) of 1.20 ± 0.24 % IA/g. For the same compound, the Kidneys ([3]; 30 min p.i.) was 86.7 ± 14.6 % IA/g, the Liver ([3]; 30 min p.i.) was 1.55 ± 0.04 % IA/g and the Lung ([3]; 30 min p.i.) was 2.23 ± 0.33 % IA/g. The Muscle ([3]; 30 min p.i.) was 0.67 ± 0.06 % IA/g, the Salivary glands ([3]; 30 min p.i.) was 1.59 ± 0.18 % IA/g and the Spleen ([3]; 30 min p.i.) was 4.76 ± 1.13 % IA/g. For the same compound, the Stomach ([3]; 30 min p.i.) was 0.85 ± 0.19 % IA/g, the “PC-3 flu Tumor” value ([3]; 30 min p.i.) was 1.04 ± 0.17 % IA/g and the “PC-3 PIP Tumor” value ([3]; 30 min p.i.) was 49.3 ± 4.97 % IA/g. For the same compound, the Blood ([3]; 2 h p.i.) was 0.08 ± 0.01 % IA/g, the Bone ([3]; 2 h p.i.) was 0.06 ± 0.00 % IA/g and the Heart ([3]; 2 h p.i.) was 0.18 ± 0.03 % IA/g. The Intestines ([3]; 2 h p.i.) was 0.95 ± 0.86 % IA/g, the Kidneys ([3]; 2 h p.i.) was 58.8 ± 7.62 % IA/g and the Liver ([3]; 2 h p.i.) was 0.56 ± 0.04 % IA/g. For the same compound, the Lung ([3]; 2 h p.i.) was 0.31 ± 0.10 % IA/g, the Muscle ([3]; 2 h p.i.) was 0.06 ± 0.01 % IA/g and the Salivary glands ([3]; 2 h p.i.) was 0.39 ± 0.01 % IA/g. The Spleen ([3]; 2 h p.i.) was 2.18 ± 0.38 % IA/g, the Stomach ([3]; 2 h p.i.) was 0.35 ± 0.17 % IA/g and the “PC-3 flu Tumor” value ([3]; 2 h p.i.) was 0.13 ± 0.02 % IA/g. For the same compound, the “PC-3 PIP Tumor” value ([3]; 2 h p.i.) was 40.0 ± 2.55 % IA/g.

Reference: publication PMC5247395 (EJNMMI Research, 2017)
